## NC(=CC=CC(=O)O)C(=O)O [2-Aminomuconate, 2-aminohexa-2,4-diene-1,6-dioate]
buffer, pH 9.5
  half-life: 20 h
pH 8.0 in potassium phosphate buffer
  amount lost on freezing and thawing: 50%
pH 9.5 (Tris-HCl)
  decomposition on freezing and thawing: about 2%
Solution stored on ice for 50 h, 0.34 mM
  amount lost on storage: 30%

— patent US6432683B1, “Preparation of 2-aminomuconate from 2-aminophenol by coupled enzymatic dioxygenation and dehydrogenation reactions” (The United States of America as represented by the …, priority 2000, dated 2002)
